Test results: patent US12121606B2, “Methods and compositions for improving skin” (L'OREAL, priority 2021, dated 2024)

Test system: in vitro skin samples (EPISKIN)
Assay: In vitro skin samples after fractional laser procedure, wound healing by OCT imaging
Type: cell-based
Settings: application after the fractional laser procedure
Protocol: The benefits of applying the Composition 4 to skin after a procedure that reduces the barrier function of skin was evaluated in vitro using samples generated by the EPISKIN™ group. Composition 4 comprised 0.5 wt. % of acetyl trifluoromethylphenyl valylglycine and 2 wt. % ethanol with the remainder being water, with all weight percentages based on the total weight of the formulation. A comparative composition (Comparative Composition A) containing transforming growth factor alpha (“TGF-α”) was also evaluated as a comparison to the Composition 4.
Specifically, a fractional laser procedure that is typical of laser resurfacing procedures was applied to the in vitro skin samples. The in vitro skin samples were characterized using non-invasive imaging analysis to determine the wound morphology of the in vitro skin samples. The kinetics and quantification of wound healing after the laser treatment was evaluated using optical coherence tomography (OCT). The optical measurements were performed at seven time points over the culture period. This was achieved using an OCT system produced by Thorlabs (Newton, N.J., USA) with an axial resolution of 8 μm.
Composition 4 and Comparative Composition A were applied by adding 10 uL onto in vitro skin samples after the fractional laser procedure. […]

SMILES: CC(=O)N(c1cccc(C(F)(F)F)c1)C(C(=O)NCC(=O)O)C(C)C (stereo not shown) [acetyl trifluoromethylphenyl valylglycine]
- regeneration of the epidermis: enhanced regeneration of the epidermis
